Drawing on the OPERA property sets (Mansouri et al. 2018), this text covers logP and logD for 112 compounds.

SMILES strings stand for the structures. Non-standard residues stand in square brackets, D forms with d. Residues, ends and D or L forms follow the SMILES beside them.

Settings in the first series: not given
As for `CC(C)COC(=O)N(C)C`, the logP was 2.
In turn, `CCOC(=O)OCn1c(=O)[nH]cc(F)c1=O` displayed a logP of 0.15.
`CCN1Cn2c(nc3ccccc3c2=O)C1C` (configuration not stated) yielded a logP of 1.02.
In turn, `CCNC(=O)[C@@H](NC(=O)CNC(=O)c1ccccc1)C(C)C` registered a logP of 1.05.
For `COc1ccc(CON2C(=O)CC3(CCCC3)C2=O)cc1`, the logP is 2.23.
`CCCC(=NOCC)C1C(=O)CC2(CCSCC2)OC1=O` (configuration not stated) showed a logP of 2.9.
Take `CCCN1CCOC2c3cccc(O)c3OCC21` (configuration not stated): the logP is 1.93.
`O=C(O)CCCOc1cccc2ccccc12` displayed a logP of 3.5.
Still for that read-out and setting: with `O=C(O)c1cccc(Cl)n1` the figure was 1.5; with `CC(C)(CN1CCCCC1)C(=O)c1ccccc1`, 3.78.
Turning to `COc1cc(N)ccc1C(=O)O`, the logP stood at 0.45.
The same measure, in the same setting: then `Cc1cc2c(cc1S(N)(=O)=O)S(=O)(=O)NC=N2`, with -0.32; and `CCOC(=O)c1ccc(OCC(OC(=O)n2ccnc2)C(C)(C)C)cc1` (configuration not stated), with 4.12.
On to `COc1ccc(OCC(OC(=O)n2ccnc2)C(C)(C)C)cc1` (configuration not stated), for which the logP was determined as 3.46.
On to `CC(=O)OCC1=C(C(=O)OCOC(=O)C(C)(C)C)N2C(=O)C(NC(=O)CSc3ccncc3)C2SC1` (configuration not stated), for which the logP stood at 1.63.
`COc1ccc(OCC(OC(=S)n2ccnc2)C(C)(C)C)cc1` (configuration not stated): the logP was 4.31.
`Clc1cccc(-c2cc(Cl)cc(Cl)c2)c1`: the logP amounted to 5.81.
Compound `Cc1cc(N)ccc1C(=O)O` yielded a logP of 1.14.
Same read-out and setting: then `COC(=O)c1cnc2n(c1=O)CCCC2`, with -0.25; and `NS(=O)(=O)c1cc2c(cc1Cl)NC(C(Cl)Cl)NS2(=O)=O` (configuration not stated), with 0.62.
`Cc1ccccc1C(=O)C(C)CN1CCCCC1` (configuration not stated) returned a logP of 3.69.
Compound `Cc1c(C)c(C)c(C)c(C)c1C` yielded a logP of 5.11.
As for `O=C(O)Cc1ccc(C2CCCCC2)cc1`, the logP was 3.91.
The same measure, in the same setting: then `CCNC(=O)NCCCn1nc(-c2ccccc2)ccc1=O`, with 1.68; and `CCOC(=O)n1c(NC(=O)OC)nc2cc(C(=O)c3ccccc3)ccc21`, with 2.93.
Compound `CC(C)(C)C(COc1ccc(C#N)cc1)OC(=O)n1ccnc1` (configuration not stated) had a logP of 3.15.
As to `COc1cccc2c1C(=O)c1c(O)c3c(c(O)c1C2=O)CC(O)(C(C)=O)CC3OC1CC(NC(=O)CN(C)C)C(O)C(C)O1` (configuration not stated), the lipophilicity (logP) worked out at 1.26.
As for `COC(=O)NC1=NCC(c2ccccc2Cl)N1C` (configuration not stated), the logP amounted to 2.08.
On the same count and under the same terms, then `CCOP(=O)(O)Cc1ccc(S(C)(=O)=O)cc1`, with -0.4; and `Cn1c(S)nnc(-c2ccc(F)cc2)c1=O`, with 2.38.
In turn, `CCOC(=O)NC1=NCC(c2ccc(F)cc2)N1C` (configuration not stated) showed a logP of 1.9.
As to `COc1c(Cl)cc(Cl)c(O)c1C(=O)NCC1CCCN1CCF` (configuration not stated), the logP is 3.66.
In turn, `CN1CCN(Cc2ncc([N+](=O)[O-])n2C)CC1` displayed a logP of -0.32.
In turn, `CCOC(=O)c1cnc2n(c1=O)CCCC2` registered a logP of 0.15.
The same measure, in the same setting: with `C[C@]12CCC(=O)C=C1CC[C@@H]1[C@@H]2CC[C@@]2(C)[C@H]1CC[C@]2(O)C(=O)CO` the figure was 3.08; with `CC(C)(C)C(=O)OCC1OC(n2cc(I)c(=O)[nH]c2=O)CC1O` (configuration not stated), 1.34.
`CN(C)C(=O)n1cc(F)c(=O)[nH]c1=O` returned a logP of -0.37.
With `O=C1CC2(CCCC2)C(=O)N1OCc1ccccc1`, the logP turned out to be 2.3.
Same read-out and setting: then `CCCCN(C)N=Nc1ccc(C(N)=O)cc1`, with 2.46; and `CCOCCCn1ccc(=O)c(O)c1C`, with 0.12; and `CCOCCOCCOP(=O)(N1CC1)N1CC1`, with 0.1.
As for `CCc1c(C)nc2cccc(C)n2c1=O`, the logP is 1.86.
`NC(=O)NCCC[C@H](N)C(=O)O` yielded a logP of -3.19.
With `COc1c(O)c(Cl)c(Cl)c(Cl)c1Cl`, the logP was determined as 4.59.
Turning to `CCNc1nc(C)c(C(=O)CCN(C)C)s1`, the logP came out at 2.21.
Turning to `Cc1onc(-c2ccccc2Cl)c1C(=O)NC1C(=O)N2C1SC(C)(C)C2C(=O)O` (configuration not stated), the logP stood at 2.48.
Take `N=C(N)NN=Cc1ccc(Cl)c([N+](=O)[O-])c1`: the logP amounted to 0.53.
In turn, `NS(=O)(=O)c1cc2c(cc1Cl)N=C(Cc1ccccc1)NS2(=O)=O` yielded a log partition coefficient (logP) of 1.7.
`CC(Cl)CCl` (configuration not stated) had a logP of 1.98.
In turn, `CCCCCCCS[C@@H]1O[C@H](CO)[C@H](O)[C@H](O)[C@H]1O` gave a logP of 1.5.
The same measure, in the same setting: then `CC(=O)N[C@H](Cc1ccccc1)C(=O)N[C@H](Cc1ccccc1)C(N)=O` (Ac-[dF]-[dF]-NH2), with 1.19.
As for `CC(C)(C)C(COc1ccc([N+](=O)[O-])cc1)OC(=O)n1ccnc1` (configuration not stated), the lipophilicity (logP) was determined as 3.35.
For the compound `Cc1ccc2nc3c(c(=O)n2c1)CCC3`, the logP amounted to 1.63.
On the same count and under the same terms, then `CCOC(=O)OCn1cc(F)c(=O)[nH]c1=O`, with -0.04; and `CC(C)(C)C(COc1ccccc1)OC(=S)n1ccnc1` (configuration not stated), with 4.27.
In turn, `CCOC(=O)C1=CNC2CCCCN2C1=O` (configuration not stated) displayed a lipophilicity (logP) of 0.57.
The compound `Nc1nc(=O)n(C2OC(CO)CC2F)cc1Cl` (configuration not stated) had a logP of -0.46.
`CC12CCC(OS(=O)(=O)O)CC1CCC1C2CCC2(C)C(C3=CC(=O)OC3)CCC12O` (configuration not stated) gave a logP of -0.14.
Still for that read-out and setting: then `CC(=O)OCC1=C(C(=O)O)N2C(=O)[C@@H](NC(=O)CSc3ccncc3)[C@H]2SC1`, with -1.15.
`O=C1C=CC(=O)c2c(O)ccc(O)c21` came in with a lipophilicity (logP) of 1.79.
Same read-out and setting: with `Cc1ccc(C)c(Oc2cccc(C(=O)NC(C)(C)C)c2)c1` the figure was 4.78; with `CCOC(=O)C1(c2ccccc2)CCN(C)CC1`, 2.72; with `CN(C)C(=O)OCc1ccc(C(N)=O)cc1`, 0.77.
In turn, `CC(C)(C)C(COc1ccc(F)cc1)OC(=S)n1ccnc1` (configuration not stated) returned a logP of 4.37.
`CCCCc1ccc(OCC(OC(=O)n2ccnc2)C(C)(C)C)cc1` (configuration not stated) came in with a logP of 4.97.
With `CC(=O)N(C)C1=NC(=O)C(=Cc2ccc([N+](=O)[O-])o2)S1`, the logP was determined as 1.05.
For `O=C(O)COc1ccc(Oc2ccc(Cl)cc2Cl)cc1`, the lipophilicity (logP) was 4.51.
Same read-out and setting: with `CCC(C(=O)OCc1ccc(Cl)cc1)C(CO)Cc1cncn1C` (configuration not stated) the figure was 2.69.
In turn, `FC(F)(F)c1nc2c(Cl)c(Cl)c(Cl)cc2[nH]1` registered a logP of 3.87.
`CNc1nc(C)c(C(=O)CCN2CCCCC2)s1` yielded a logP of 2.21.
`Nc1nc(=O)c2[nH]c(N)c(Cc3ccsc3)c2[nH]1` displayed a logP of 1.08.
Same read-out and setting: then `Oc1c(Cl)cc(Cl)c(Cl)c1O`, with 3.6; and `O=[N+]([O-])c1cnc(-c2ccc(F)cc2)n1CCO`, with 1.33.
Take `CC(C)OC(=O)C(C(=O)OC(C)C)=C1SC=CS1`: the logP is 3.75.
For the compound `Cc1c(F)c(F)c(C(=O)O)c(F)c1F`, the logP was 3.15.
Regarding `NS(=O)(=O)c1cc2c(cc1C(F)(F)C(F)(F)F)N=CNS2(=O)=O`, the logP was found to be 1.05.
For the compound `O=c1[nH]c(=O)n(C2OC(CO)CC2F)cc1Cl` (configuration not stated), the logP was -0.28.
The compound `Cc1ccc(C=O)o1` gave a logP of 0.67.
The same measure, in the same setting: then `CCNC1C2CCC(C2)C1c1ccccc1` (configuration not stated), with 3.2; and `Cc1ccc(C(=O)C(C)CN2CCCCC2)cc1` (configuration not stated), with 3.65.
The compound `CCCCCCCC=CCCCCCCC(=O)O` had a log partition coefficient (logP) of 6.58.
`Nc1c(Cl)cccc1Cl` registered a logP of 2.76.
Still for that read-out and setting: then `CCNC(=O)NCCCCn1nc(-c2ccccc2)ccc1=O`, with 1.83; and `C[C@H](CN1CCOCC1)C(C(=O)N1CCCC1)(c1ccccc1)c1ccccc1`, with 3.61; and `O=C1NC(Cc2ccccc2)C(=O)N1Cc1ccccc1` (configuration not stated), with 2.84.
Compound `Cc1nc2ccccn2c(=O)c1C` gave a logP of 1.
For the compound `CC(C)(C)OC(=O)C(C(=O)OC(C)(C)C)=C1SCCS1`, the logP is 4.01.
On the same count and under the same terms, with `COc1ncc(-c2ccncc2)cc1C#N` the figure was 2.02; with `O=C1N[C@@H](Cc2ccccc2)C(=O)N[C@H]1Cc1ccccc1`, 1.59.
Take `COP(=S)(OC)Oc1cc(Cl)c(Cl)cc1Cl`: the logP turned out to be 4.88.
`CSc1nnc(-c2cc(Cl)cc(Cl)c2)c(=O)n1N` gave a logP of 3.02.
Consider `N#Cc1ccccc1OCC(O)CNCCNC(=O)Cc1ccc(O)cc1` (configuration not stated), for which the logP came out at 0.92.
Still for that read-out and setting: with `CN1C(=O)NC(c2ccccc2)(c2ccccc2)C1=O` the figure was 2.28; with `CCCCCCCCCCCCOC(=O)N(C)SN(C)C(=O)Oc1ccc2c(c1)OCO2`, 7.39; with `CNC12CCCCC1CSc1ccccc12` (configuration not stated), 3.88.
`NC(=O)c1csc([C@@H]2O[C@H](CO)[C@@H](O)[C@H]2O)n1` yielded a logP of -1.73.
The compound `Cc1nn(-c2ccccc2)c(Nc2ccc([N+](=O)[O-])cc2)c1[N+](=O)[O-]` registered a logP of 2.78.
For the compound `CC(C)c1ccc(OCC(OC(=O)n2ccnc2)C(C)(C)C)cc1` (configuration not stated), the logP is 4.77.
With `Cc1c(O)c(=O)ccn1C`, the logP is -0.77.
Still for that read-out and setting: with `NC1C2CCC1c1cc(C(F)(F)F)ccc1C2` (configuration not stated) the figure was 3.59; with `CCCCCCCCn1ccc(=O)c(O)c1C`, 2.88.
Still for that read-out and setting: with `CCN(CC)C(=O)c1ccccc1C` the figure was 2.02.
In turn, `CC(=O)O[C@H]1[C@@H](OC(C)=O)C[C@H](O[C@@H]2C(C)O[C@@H](O[C@H]3[C@@H](OC(C)=O)C[C@H](O[C@H]4CC[C@@]5(C)[C@H](CC[C@@H]6[C@@H]5CC[C@]5(C)[C@@H](C7=CC(=O)OC7)[C@@H](OC(C)=O)C[C@]65O)C4)O[C@@H]3C)C[C@@H]2OC(C)=O)O[C@@H]1C` (some centres not stated) displayed a logP of 3.46.
Same read-out and setting: with `COc1ncnc2c1ncn2C1OC(CO)C(OC(=O)C(C)(C)C)C1OC(=O)C(C)(C)C` (configuration not stated) the figure was 3.61.
`OC(Cn1ccnc1)(c1cccc(Br)c1)c1ccc(F)cc1F` (configuration not stated) returned a logP of 3.6.
In the case of `CC(=O)NC1=NC(=O)C(=Cc2ccc([N+](=O)[O-])o2)S1`, the logP came out at 1.03.
Take `Nc1nc(NCC(O)CO)c(Cl)nc1[N+](=O)[O-]` (configuration not stated): the logP was -0.22.
In the case of `CCOc1cccc(-c2nnc(S)n(C)c2=O)c1`, the logP was found to be 2.67.
In the case of `O=C(CCN1CCCCC1)CN1C(=O)CC(c2ccc(Cl)cc2)C1=O` (configuration not stated), the logP was 2.23.
On to `O=C(O)c1cc(O)nc(O)n1`, for which the logP is -0.83.

The series is the same for the next values; noted with them: pH 7.4.
For `Cn1c(=O)c2[nH]c(Cl)nc2n(C)c1=O`, the logD is -0.85.
On the same count and under the same terms, then `COc1ccc2c3c1O[C@H]1[C@@H](O)C=C[C@H]4[C@@H](C2)N(C)CC[C@@]341.O=P(O)(O)O`, with -1.4.

Usually logP stands for the decadic logarithm of the partition coefficient of the neutral form, usually between octanol and water. High values mean a more lipophilic compound, low ones a more hydrophilic compound. Usually logD stands for the decadic logarithm of the distribution of all forms, ionised or not, between an organic phase and buffer at a given pH.
